Values joined by “and” are separate entries in the source; they are usually repeats but may differ in a detail not shown here. Equal values may be shown once.
What was measured:
[1] = test system: Jurkat, SKOV-3 and MESO-1 cells; assay: Cytotoxicity assay, statements for all tested cell lines together; type: cell-based; conditions: Jurkat, SKOV-3 and MESO-1 cells, 72 h
Method in brief: (§1)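 Luminescent ATP read-out (CellTiter-Glo) quantified surviving cells after a 72 h incubation with 2-fold diluted compounds in 0.5% DMSO, added 4 h post-seeding at 1000 cells/well.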

[2] = test system: malignant pleural mesothelioma MESO-1 cells; assay: Cytotoxicity assay (CellTiter-Glo, 72 h), MESO-1; type: cell-based; conditions: raw replicate data
Method in brief: as §1

[3] = Cytotoxicity assay (CellTiter-Glo, 72 h), MESO-1; type: cell-based; conditions: human, MESO-1 malignant pleural mesothelioma cells, raw replicate data, read-out: MESO1 viability (%)
Method in brief: as §1

T lymphoma Jurkat cells = assay: Cytotoxicity assay (CellTiter-Glo, 72 h), Jurkat; type: cell-based; conditions: raw data (replicates)
Method in brief: as §1

[4] = Cytotoxicity assay (CellTiter-Glo, 72 h), Jurkat; type: cell-based; conditions: human, Jurkat cells (T lymphoma), raw data (replicates)
Method in brief: as §1

[5] = test system: human ovarian adenocarcinoma SKOV-3 cells; assay: Cytotoxicity assay (CellTiter-Glo, 72 h), SKOV-3; type: cell-based; conditions: raw replicate data
Method in brief: as §1

[6] = Cytotoxicity assay (CellTiter-Glo, 72 h), SKOV-3; type: cell-based, human; conditions: human, raw replicate data, read-out: SKOV3 viability (%)
Method in brief: as §1

SMILES: CO[C@H]1C[C@@H]2CC[C@@H](C)[C@@](O)(O2)C(=O)C(=O)N2CCCC[C@H]2C(=O)O[C@H]([C@H](C)C[C@@H]2CC[C@@H](O)[C@H](OC)C2)CC(=O)[C@H](C)/C=C(\C)[C@@H](O)CC[C@H](C)/C=C/C=C/C=C/1C [Compound 7]
- Effect on cell viability, in words [1]: slightly suppressed the cell viabilities
- MESO1 viability (%) ([2]; conc 9.53674e-5 uM): 102.2% and 99.0%
- MESO1 viability (%) ([2]; conc 0.000190735 uM): 96.1%
- MESO1 viability (%) ([2]; conc 0.00038147 uM): 98.4% and 104.2%
- MESO1 viability (%) ([2]; conc 0.000762939 uM): 97.5%
- MESO1 viability (%) ([2]; conc 0.00152588 uM): 94.3% and 98.4%
- MESO1 viability (%) ([2]; conc 0.00305176 uM): 93.1% and 92.8%
- MESO1 viability (%) ([2]; conc 0.00610352 uM): 98.2%
- MESO1 viability (%) ([2]; conc 0.012207 uM): 92.2% and 89.5%
- MESO1 viability (%) ([2]; conc 0.0244141 uM): 87.8%
- MESO1 viability (%) ([2]; conc 0.0488281 uM): 86.4% and 84.2%
- MESO1 viability (%) ([2]; conc 0.0976562 uM): 76.6% and 76.8%
- MESO1 viability (%) ([2]; conc 0.195312 uM): 70.4% and 63.5%
- MESO1 viability (%) ([2]; conc 0.390625 uM): 69.2% and 71.3%
- MESO1 viability (%) ([2]; conc 0.78125 uM): 64.7% and 62.9%
- MESO1 viability (%) ([2]; conc 1.5625 uM): 70.0% and 72.7%
- MESO1 viability (%) ([2]; conc 3.125 uM): 62.1% and 64.7%
- MESO1 viability (%) ([2]; conc 6.25 uM): 67.5% and 72.2%
- MESO1 viability (%) ([2]; conc 12.5 uM): 60.9% and 63.2%
- MESO1 viability (%) ([2]; conc 25 uM): 63.3% and 65.2%
- MESO1 viability (%) ([2]; conc 50 uM): 30.2% and 20.1%
- viability at 72 h, 9.53674e-05 uM ([3]; conc 9.53674e-5 uM): 96.8%
- viability at 72 h, 0.000190735 uM ([3]; conc 0.000190735 uM): 92.7%
- viability at 72 h, 0.00038147 uM ([3]; conc 0.00038147 uM): 98.8%
- viability at 72 h, 0.000762939 uM ([3]; conc 0.000762939 uM): 94.4%
- viability at 72 h, 0.00152588 uM ([3]; conc 0.00152588 uM): 97.9%
- viability at 72 h, 0.00305176 uM ([3]; conc 0.00305176 uM): 90.7%
- viability at 72 h, 0.00610352 uM ([3]; conc 0.00610352 uM): 100%
- viability at 72 h, 0.012207 uM ([3]; conc 0.012207 uM): 86%
- viability at 72 h, 0.0244141 uM ([3]; conc 0.0244141 uM): 90.4%
- viability at 72 h, 0.0488281 uM ([3]; conc 0.0488281 uM): 80.8%
- viability at 72 h, 0.0976562 uM ([3]; conc 0.0976562 uM): 78.6%
- viability at 72 h, 0.195312 uM ([3]; conc 0.195312 uM): 68.6%
- viability at 72 h, 0.390625 uM ([3]; conc 0.390625 uM): 71.6%
- viability at 72 h, 0.78125 uM ([3]; conc 0.78125 uM): 67.7%
- viability at 72 h, 1.5625 uM ([3]; conc 1.5625 uM): 70.1%
- viability at 72 h, 3.125 uM ([3]; conc 3.125 uM): 60.8%
- viability at 72 h, 6.25 uM ([3]; conc 6.25 uM): 67.3%
- viability at 72 h, 12.5 uM ([3]; conc 12.5 uM): 66.3%
- viability at 72 h, 25 uM ([3]; conc 25 uM): 64.4%
- viability at 72 h, 50 uM ([3]; conc 50 uM): 23.2%
- Jurkat viability (%) (T lymphoma Jurkat cells; conc 9.53674e-5 uM): 101.4% and 96.8%
- Jurkat viability (%) (T lymphoma Jurkat cells; conc 0.000190735 uM): 92.3% and 102.8%
- Jurkat viability (%) (T lymphoma Jurkat cells; conc 0.00038147 uM): 98.3% and 99.4%
- Jurkat viability (%) (T lymphoma Jurkat cells; conc 0.000762939 uM): 96.8% and 109.7%
- Jurkat viability (%) (T lymphoma Jurkat cells; conc 0.00152588 uM): 108.1% and 104.4%
- Jurkat viability (%) (T lymphoma Jurkat cells; conc 0.00305176 uM): 100.3% and 100.8%
- Jurkat viability (%) (T lymphoma Jurkat cells; conc 0.00610352 uM): 94.5% and 97.8%
- Jurkat viability (%) (T lymphoma Jurkat cells; conc 0.012207 uM): 91.0% and 94.3%
- Jurkat viability (%) (T lymphoma Jurkat cells; conc 0.0244141 uM): 98.4% and 90.4%
- Jurkat viability (%) (T lymphoma Jurkat cells; conc 0.0488281 uM): 79.8% and 78.8%
- Jurkat viability (%) (T lymphoma Jurkat cells; conc 0.0976562 uM): 64.4% and 67.9%
- Jurkat viability (%) (T lymphoma Jurkat cells; conc 0.195312 uM): 41.4% and 44.6%
- Jurkat viability (%) (T lymphoma Jurkat cells; conc 0.390625 uM): 37.3% and 37.7%
- Jurkat viability (%) (T lymphoma Jurkat cells; conc 0.78125 uM): 29.3% and 29.8%
- Jurkat viability (%) (T lymphoma Jurkat cells; conc 1.5625 uM): 28.3%
- Jurkat viability (%) (T lymphoma Jurkat cells; conc 3.125 uM): 25.8% and 24.4%
- Jurkat viability (%) (T lymphoma Jurkat cells; conc 6.25 uM): 23.0% and 23.1%
- Jurkat viability (%) (T lymphoma Jurkat cells; conc 12.5 uM): 10.5% and 12.1%
- Jurkat viability (%) (T lymphoma Jurkat cells; conc 25 uM): 0.565% and 1.0%
- Jurkat viability (%) (T lymphoma Jurkat cells; conc 50 uM): 0.186% and 0.257%
- viability at 72 h, 9.53674e-05 uM ([4]; conc 9.53674e-5 uM): 100%
- viability at 72 h, 0.000190735 uM ([4]; conc 0.000190735 uM): 95.1%
- viability at 72 h, 0.00038147 uM ([4]; conc 0.00038147 uM): 102%
- viability at 72 h, 0.000762939 uM ([4]; conc 0.000762939 uM): 100%
- viability at 72 h, 0.00152588 uM ([4]; conc 0.00152588 uM): 105%
- viability at 72 h, 0.00305176 uM ([4]; conc 0.00305176 uM): 93.5%
- viability at 72 h, 0.00610352 uM ([4]; conc 0.00610352 uM): 96.7%
- viability at 72 h, 0.012207 uM ([4]; conc 0.012207 uM): 90.6%
- viability at 72 h, 0.0244141 uM ([4]; conc 0.0244141 uM): 98.9%
- viability at 72 h, 0.0488281 uM ([4]; conc 0.0488281 uM): 87%
- viability at 72 h, 0.0976562 uM ([4]; conc 0.0976562 uM): 67%
- viability at 72 h, 0.195312 uM ([4]; conc 0.195312 uM): 46.3%
- viability at 72 h, 0.390625 uM ([4]; conc 0.390625 uM): 36%
- viability at 72 h, 0.78125 uM ([4]; conc 0.78125 uM): 31%
- viability at 72 h, 1.5625 uM ([4]; conc 1.5625 uM): 26.7%
- viability at 72 h, 3.125 uM ([4]; conc 3.125 uM): 24.2%
- viability at 72 h, 6.25 uM ([4]; conc 6.25 uM): 24.1%
- viability at 72 h, 12.5 uM ([4]; conc 12.5 uM): 10.9%
- viability at 72 h, 25 uM ([4]; conc 25 uM): 0.741%
- viability at 72 h, 50 uM ([4]; conc 50 uM): 0.258%
- SKOV3 viability (%) ([5]; conc 9.53674e-5 uM): 108.9% and 101.6%
- SKOV3 viability (%) ([5]; conc 0.000190735 uM): 101.5% and 97.4%
- SKOV3 viability (%) ([5]; conc 0.00038147 uM): 103.2% and 103.5%
- SKOV3 viability (%) ([5]; conc 0.000762939 uM): 102.5%
- SKOV3 viability (%) ([5]; conc 0.00152588 uM): 105.1% and 100.3%
- SKOV3 viability (%) ([5]; conc 0.00305176 uM): 94.9% and 97.9%
- SKOV3 viability (%) ([5]; conc 0.00610352 uM): 104.9% and 101.4%
- SKOV3 viability (%) ([5]; conc 0.012207 uM): 92.0% and 94.0%
- SKOV3 viability (%) ([5]; conc 0.0244141 uM): 99.4% and 102.3%
- SKOV3 viability (%) ([5]; conc 0.0488281 uM): 100.8% and 88.2%
- SKOV3 viability (%) ([5]; conc 0.0976562 uM): 88.7% and 90.6%
- SKOV3 viability (%) ([5]; conc 0.195312 uM): 66.8% and 68.9%
- SKOV3 viability (%) ([5]; conc 0.390625 uM): 68.2% and 69.5%
- SKOV3 viability (%) ([5]; conc 0.78125 uM): 60.2% and 57.4%
- SKOV3 viability (%) ([5]; conc 1.5625 uM): 64.2% and 69.2%
- SKOV3 viability (%) ([5]; conc 3.125 uM): 60.4% and 56.6%
- SKOV3 viability (%) ([5]; conc 6.25 uM): 60.8% and 65.6%
- SKOV3 viability (%) ([5]; conc 12.5 uM): 53.3% and 53.4%
- SKOV3 viability (%) ([5]; conc 25 uM): 31.4% and 36.3%
- SKOV3 viability (%) ([5]; conc 50 uM): 5.9% and 7.4%
- viability at 72 h, 9.53674e-05 uM ([6]; SKOV-3 cells (ovarian adenocarcinoma), conc 9.53674e-5 uM): 101%
- viability at 72 h, 0.000190735 uM ([6]; SKOV-3 cells (ovarian adenocarcinoma), conc 0.000190735 uM): 101%
- viability at 72 h, 0.00038147 uM ([6]; SKOV-3 cells (ovarian adenocarcinoma), conc 0.00038147 uM): 98.2%
- viability at 72 h, 0.000762939 uM ([6]; SKOV-3 cells (ovarian adenocarcinoma), conc 0.000762939 uM): 98.7%
- viability at 72 h, 0.00152588 uM ([6]; SKOV-3 cells (ovarian adenocarcinoma), conc 0.00152588 uM): 101%
- viability at 72 h, 0.00305176 uM ([6]; SKOV-3 cells (ovarian adenocarcinoma), conc 0.00305176 uM): 94.8%
- viability at 72 h, 0.00610352 uM ([6]; SKOV-3 cells (ovarian adenocarcinoma), conc 0.00610352 uM): 98.4%
- viability at 72 h, 0.012207 uM ([6]; SKOV-3 cells (ovarian adenocarcinoma), conc 0.012207 uM): 96.9%
- viability at 72 h, 0.0244141 uM ([6]; SKOV-3 cells (ovarian adenocarcinoma), conc 0.0244141 uM): 94.4%
- viability at 72 h, 0.0488281 uM ([6]; SKOV-3 cells (ovarian adenocarcinoma), conc 0.0488281 uM): 92.3%
- viability at 72 h, 0.0976562 uM ([6]; SKOV-3 cells (ovarian adenocarcinoma), conc 0.0976562 uM): 88.5%
- viability at 72 h, 0.195312 uM ([6]; SKOV-3 cells (ovarian adenocarcinoma), conc 0.195312 uM): 64.9%
- viability at 72 h, 0.390625 uM ([6]; SKOV-3 cells (ovarian adenocarcinoma), conc 0.390625 uM): 75%
- viability at 72 h, 12.5 uM ([6]; SKOV-3 cells (ovarian adenocarcinoma), conc 12.5 uM): 56.1%
- viability at 72 h, 25 uM ([6]; SKOV-3 cells (ovarian adenocarcinoma), conc 25 uM): 30.8%
- viability at 72 h, 50 uM ([6]; SKOV-3 cells (ovarian adenocarcinoma), conc 50 uM): 6.6%
- viability at 72 h, 0.78125 uM ([6]; SKOV-3 ovarian adenocarcinoma cells, conc 0.78125 uM): 59.1%
- viability at 72 h, 1.5625 uM ([6]; SKOV-3 ovarian adenocarcinoma cells, conc 1.5625 uM): 62%
- viability at 72 h, 3.125 uM ([6]; SKOV-3 ovarian adenocarcinoma cells, conc 3.125 uM): 59.9%
- viability at 72 h, 6.25 uM ([6]; SKOV-3 ovarian adenocarcinoma cells, conc 6.25 uM): 61.9%

— publication PMC7419507, “In vitro Cas9-assisted editing of modular polyketide synthase genes to produce desired natural product derivatives” (Nature Communications, 2020)
